The values that follow come from patent publication US5872115A, “2-ureido-benzamide derivatives” (Grelan Pharmaceutical Co. Ltd., priority 1995, dated 1999).

Read-outs that look alike come from different tables or passages of the source.

The target in assay [1] is T1, THP-1 microsomal ACAT (Homo sapiens, UniProt P35610).
T1 construct: ACAT enzyme fraction was prepared from microsome of human leukemia THP-1 cell; endogenous in cells; host or cells: THP-1 (human leukemia), microsomes
T1 sequence (P35610 1-550): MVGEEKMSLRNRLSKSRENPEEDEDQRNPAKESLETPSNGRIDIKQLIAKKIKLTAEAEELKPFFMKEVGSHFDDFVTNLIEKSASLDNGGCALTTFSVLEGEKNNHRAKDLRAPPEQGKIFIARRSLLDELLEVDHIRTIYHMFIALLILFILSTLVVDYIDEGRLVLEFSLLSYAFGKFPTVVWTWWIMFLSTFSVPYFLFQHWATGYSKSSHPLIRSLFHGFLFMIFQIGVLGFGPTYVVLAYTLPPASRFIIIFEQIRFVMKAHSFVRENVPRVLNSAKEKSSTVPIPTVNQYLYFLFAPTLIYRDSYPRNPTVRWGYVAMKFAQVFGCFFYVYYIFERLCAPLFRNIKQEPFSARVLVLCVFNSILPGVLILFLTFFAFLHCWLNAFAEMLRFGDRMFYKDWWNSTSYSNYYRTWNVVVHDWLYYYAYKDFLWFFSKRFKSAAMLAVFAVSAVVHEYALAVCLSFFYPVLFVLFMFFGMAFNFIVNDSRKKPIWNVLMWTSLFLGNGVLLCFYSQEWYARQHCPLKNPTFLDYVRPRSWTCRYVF
Nature of the assay: In vitro test using THP-1 microsome (ACAT inhibition). In kind it is biochemical.
Experimental: (4) In Vitro Test Using THP-1 Microsome
Then, the reaction was initiated by the addition of 5 nmoles of labeled [^14 C] oleoyl-CoA dissolved in 20 μl of said phosphate buffer solution containing BSA and the reaction was stopped by the addition of 20 μl of 2N HCl after 10 minutes. [^14 C] cholesterol-oleate formed was separated by thin-layer chromatography and the radioactivity was counted with liquid scintillation counter.
ACAT inhibitory activities of the test compounds were shown as IC50 values.

In assay [2] the target is T1, THP-1 microsomal ACAT. The assay can be described thus: Bioavailability assessment of ACAT inhibitors by their ex vivo activity (serum of dosed mice on THP-1 microsomal ACAT). In kind it is in vivo. The procedure:
(5) Bioavailability Assessment of ACAT Inhibitors by Their <<ex vivo>> Activity
[…] Blood samples were collected 0.5, 1, 1.5, 2, 6 hour postdose. Serum were harvested after gentle centrifugation and stored at -20.
The following day, 10 μl serum were preincubated at 37 for 5 minutes with 20 μl of THP-1 microsomal ACAT and then incubated 10 minutes with 20 μl of radiolabeled oleoyl-CoA as described above in method (4). The serum is used instead of the drug solution.
ACAT inhibitory activities of the test compounds were shown as maximum inhibition percentages (Imax).

[3] abbreviates: female mice, 30 mg/kg per os, 1% CMC-Na 0.2% Tween 80, maximum inhibition by serum.
Where [4] appears, read: THP-1 microsome, read-out: IC50 THP1 microsome.
The mark [5] stands for this setting: tested at 100 mg/kg in a suspension of 0.5% CMC-Na (footnote *).

Take `CCCCNC(=O)Nc1ccc(OC(=O)NCCCC)cc1C(=O)NCC1CCN(C(c2ccccc2)c2ccccc2)CC1` [77 (b), 5-n-butylcarbamyloxy-2-(N'-n-butylureido)-N-[(1-diphenylmethylpiperidin-4-yl)methyl]benzamide]: the 50% inhibitory concentration (IC50) – broadly, the concentration needed to halve the response being measured – against THP-1 microsomal ACAT [1] is 50 nM. Also, on THP-1 microsomal ACAT [2] (setting [3]), the “Imax Ex vivo” value turned out to be 41.37%.

Consider `CCCCNC(=O)Nc1ccc([S+](C)[O-])cc1C(=O)NCC1CCN(C(c2ccccc2)c2ccccc2)CC1` (stereo not drawn) [111 (a)], for which the IC50 at THP-1 microsomal ACAT [1] (setting [4]) was 100 nM. The “Imax Ex vivo” value on THP-1 microsomal ACAT [2] (setting [3]) is on record as 62.01%. On to `CCCCNC(=O)Nc1ccc(N(CC)CC)cc1C(=O)NCC1CCN(C(c2ccccc2)c2ccccc2)CC1` [Example 62, 2-(N'-n-Butylureido)-5-diethylamino-N-[(1-diphenylmethylpiperidin-4-yl)-methyl]-benzamide], for which the IC50 at THP-1 microsomal ACAT [1] (setting [4]) amounted to 30 nM. Besides, the “Imax Ex vivo” value on THP-1 microsomal ACAT [2] (setting [3]) is reported as 62.57%.

Turning to `CCCCNC(=O)Nc1ccc(-n2ccnc2)cc1C(=O)NCC1CCN(C(c2ccccc2)c2ccccc2)CC1` [Example 64, 2-(N'-n-Butylureido)-5-(imidazol-1-yl)-N-[(1-diphenylmethylpiperidin-4-yl)-methyl]-benzamide], the 50% inhibitory concentration (IC50) at THP-1 microsomal ACAT [1] (setting [4]) was determined as 200 nM. For the same compound, at THP-1 microsomal ACAT [2] (setting [3]), the “Imax Ex vivo” value came to 43.14%. The matching figures for `CCCCNC(=O)Nc1ccc(N2CCCC2)cc1C(=O)NCC1CCN(C(c2ccccc2)c2ccccc2)CC1` [Example 65, 2-(N'-n-Butylureido)-5-(pyrrolidin-1-yl)-N-[(1-diphenylmethylpiperidin-4-yl)methyl]-benzamide]: 60 nM and 37.43%. The like results for `CCCCNC(=O)Nc1ccc(OC)cc1C(=O)NCC1CCN(C(c2ccccc2)c2ccccc2)CC1` [Example 67, 2-(N'-Butylureido)-5-methoxy-N-[(1-diphenylmethylpiperidin-4-yl)methyl]-benzamide] were, in that order, 50 nM and 51.97%. The matching figures for `CCCCNC(=O)Nc1ccc(OCC)cc1C(=O)NCC1CCN(C(c2ccccc2)c2ccccc2)CC1` [Example 68, 2-(N'-n-Butylureido)-5-ethoxy-N-[(1-diphenylmethylpiperidin-4-yl)methyl]-benzamide]: 30 nM and 50.51%.

As to `CCCCNC(=O)Nc1ccc(OCC2CC2)cc1C(=O)NCC1CCN(C(c2ccccc2)c2ccccc2)CC1` [Example 69, 2-(N'-n-Butylureido)-5-cyclopropylmethoxy-N-[(1-diphenylmethylpiperidin-4-yl)methyl]-benzamide], the IC50 at THP-1 microsomal ACAT [1] (setting [4]) was 30 nM. Moreover, the “Imax Ex vivo” value at THP-1 microsomal ACAT [2] (setting [3]) was 40.11%. As to `CCCCNC(=O)Nc1ccc(SC)cc1C(=O)NCC1CCN(C(c2ccccc2)c2ccccc2)CC1` [Example 73], the IC50 on THP-1 microsomal ACAT [1] (setting [4]) was determined as 20 nM. Also, the “Imax Ex vivo” value on THP-1 microsomal ACAT [2] (setting [3]) was found to be 38.17%. For `CCCCCCCNC(=O)Nc1ccc(-n2ccnc2)cc1C(=O)NCC1CCN(C(c2ccccc2)c2ccccc2)CC1` [Example 79, 2(N'-n-Heptylureido)-5-(imidazol-1-yl)-N-[(1-diphenylmethylpiperidin-4-yl)methyl]-benzamide], the concentration for half-maximal inhibition (IC50) at THP-1 microsomal ACAT [1] (setting [4]) amounted to 220 nM. The “Imax Ex vivo” value on THP-1 microsomal ACAT [2] (setting [5]) was 63.26%. With `CCCCCCCCCCNC(=O)Nc1ccc(N(C)C)cc1C(=O)NCC1CCN(C(c2ccccc2)c2ccccc2)CC1` [Example 80, 2-(N'-n-Decylureido)-5-dimethylamino-N-[(1-diphenylmethylpiperidin-4-yl)methyl]-benzamide], the IC50 at THP-1 microsomal ACAT [1] (setting [4]) was found to be 170 nM. `CCCCCCCNC(=O)Nc1ccc(OC)cc1C(=O)NCC1CCN(C(c2ccccc2)c2ccccc2)CC1` [Example 81, 2-(N'-n-Heptylureido)-5-methoxy-N-[(1-diphenylmethylpiperidin-4-yl)methyl]benzamide]: the IC50 on THP-1 microsomal ACAT [1] (setting [4]) turned out to be 40 nM. For the same compound, at THP-1 microsomal ACAT [2] (setting [5]), the “Imax Ex vivo” value is 74.11%. On to `CCCCCCCNC(=O)Nc1ccc(N2CCOCC2)cc1C(=O)NCC1CCN(C(c2ccccc2)c2ccccc2)CC1` [Example 82, 2-(N'-n-Heptylureido)-5-(morpholin-4-yl)-N-[(1-diphenylmethylpiperidin-4-yl)methyl]-benzamide], for which, on THP-1 microsomal ACAT [1] (setting [4]), the concentration for half-maximal inhibition (IC50) was found to be 100 nM. The “Imax Ex vivo” value at THP-1 microsomal ACAT [2] (setting [3]) is on record as 50.15%.

For the compound `CCCCCCCNC(=O)Nc1ccc(N2CCCCC2)cc1C(=O)NCC1CCN(C(c2ccccc2)c2ccccc2)CC1` [Example 83, 2-(N'-n-Heptylureido)-5-(piperidin-1-yl)-N-[(1-diphenylmethylpiperidin-4-yl)methyl]benzamide], the IC50 at THP-1 microsomal ACAT [1] (setting [4]) turned out to be 270 nM. Still for that read-out and setting: under `CCCCCCCNC(=O)Nc1ccc(OCC)cc1C(=O)NCC1CCN(C(c2ccccc2)c2ccccc2)CC1` [Example 86, 5-Ethoxy-2-(N'-n-heptylureido)-N-[(1-diphenylmethylpiperidin-4-yl)methyl]-benzamide] stands 40 nM; under `CCCCCCCNC(=O)Nc1ccc(N(CC)CC)cc1C(=O)NCC1CCN(C(c2ccccc2)c2ccccc2)CC1` [Example 87, 5-Diethylamino-2-(N'-n-heptylureido)-N-[(1-diphenylmethylpiperidin-4-yl)-methyl]-benzamide], 200 nM. The same measure, in the same setting: under `CCCCCCCNC(=O)Nc1ccc(N(C)C)cc1C(=O)NCC1CCCN(C(c2ccccc2)c2ccccc2)C1` (stereo not drawn) [Example 89, 2-(N'-n-Heptylureido)-5-dimethylamino-N-[(1-diphenylmethylpiperidin-3-yl)methyl]-benzamide] stands 60 nM.

For the compound `CCCCCCCNC(=O)Nc1ccc(N(C)C)cc1C(=O)NCC1CCN(C(c2ccc(Cl)cc2)c2ccc(Cl)cc2)CC1` [Example 92, 2-(N'-n-Heptylureido)-5-dimethylamino-N-[[1-bis(4-chlorophenyl)methylpiperidin-4-yl]-methyl]benzamide], at THP-1 microsomal ACAT [1] (setting [4]), the IC50 came to 300 nM. Same read-out and setting: the result for `COCCCNC(=O)Nc1ccc(N(C)C)cc1C(=O)NCC1CCN(C(c2ccccc2)c2ccccc2)CC1` [Example 103, 2-(N'-3-Methoxypropylureido)-5dimethylamino-N-[(1-diphenylmethylpiperidin-4-yl)methyl]benzamide] reads 90 nM. Still for that read-out and setting: the result for `COCCCNC(=O)Nc1ccc(N2CCOCC2)cc1C(=O)NCC1CCN(C(c2ccccc2)c2ccccc2)CC1` [Example 104, 2-(N'-3-Methoxypropylureido)-5-(morpholin-4-yl)-N-[(1-diphenylmethylpiperidin-4-yl)methyl]benzamide] reads 100 nM; that for `O=C(NCC1CC1)Nc1ccc(N2CCOCC2)cc1C(=O)NCC1CCN(C(c2ccccc2)c2ccccc2)CC1` [Example 105, 2-(N'-Cyclopropylmethylureido)-5-(morpholin-4-yl)-N-[(1-diphenylmethylpiperidin-4-yl)methyl]benzamide], 100 nM. With `CCCCCCCNC(=O)Nc1ccc(C(C)C)cc1C(=O)NCC1CCN(C(c2ccccc2)c2ccccc2)CC1` [Example 106, 2-(N'-n-Heptylureido)-5-isopropyl-N-[(1-diphenylmethylpiperidin-4-yl)methyl]benzamide], the IC50 at THP-1 microsomal ACAT [1] (setting [4]) is 220 nM. With `CCCCNC(=O)Nc1ccc(N)cc1C(=O)NCC1CCN(C(c2ccccc2)c2ccccc2)CC1` [Example 109, 5-Amino-2-(N'-n-butylureido)-N-[(1-diphenylmethylpiperidin-4-yl)methyl]-benzamide], the IC50 at THP-1 microsomal ACAT [1] (setting [4]) is 400 nM.

In the case of `CCCCNC(=O)Nc1ccc(NC)cc1C(=O)NCC1CCN(C(c2ccccc2)c2ccccc2)CC1` [Example 112, 5-Methylamino-2-(N'-n-butylureido)-N-[(1-diphenylmethylpiperidin-4-yl)methyl]benzamide], the IC50 on THP-1 microsomal ACAT [1] (setting [4]) came out at 200 nM.
